US12643877B2, “Substituted tetrahydroisoquinoiline derivative as a D1 positive allosteric modulator” (UCB Biopharma SRL, priority 2019, dated 2026)
pEC50: −log10 of the molar value. “And” between values parts separate entries of the source, which are not always exact repeats. Equal entries are not always repeated.

How the values were obtained:
[1] = target: T1, human GABAA receptor α1,β2 and γ2 subunits (Homo sapiens, UniProt P14867+P18507+P47870); assay: Automated patch clamp studies on GABAA receptor cells; assay type: cell-based; settings: 10 μM compound; GABA 15 μM; CHO-K1 cells; read-out: percentage of inhibition of the GABAA receptor
T1 construct: expressed in transfected cells; host or cells: CHO-K1 cells
T1 sequence (P14867 28-456): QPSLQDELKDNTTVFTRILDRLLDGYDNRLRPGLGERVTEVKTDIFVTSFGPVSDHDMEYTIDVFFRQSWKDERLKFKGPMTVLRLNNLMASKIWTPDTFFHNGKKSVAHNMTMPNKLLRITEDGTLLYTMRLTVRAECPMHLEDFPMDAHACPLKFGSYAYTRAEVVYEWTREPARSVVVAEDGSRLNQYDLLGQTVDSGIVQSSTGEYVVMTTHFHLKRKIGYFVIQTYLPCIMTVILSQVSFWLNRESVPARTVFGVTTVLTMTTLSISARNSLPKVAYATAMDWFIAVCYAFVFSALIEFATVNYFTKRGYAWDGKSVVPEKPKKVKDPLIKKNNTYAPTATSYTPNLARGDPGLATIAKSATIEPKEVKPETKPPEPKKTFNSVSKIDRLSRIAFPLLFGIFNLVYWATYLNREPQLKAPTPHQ
T1 sequence (P47870 25-512 limits assumed): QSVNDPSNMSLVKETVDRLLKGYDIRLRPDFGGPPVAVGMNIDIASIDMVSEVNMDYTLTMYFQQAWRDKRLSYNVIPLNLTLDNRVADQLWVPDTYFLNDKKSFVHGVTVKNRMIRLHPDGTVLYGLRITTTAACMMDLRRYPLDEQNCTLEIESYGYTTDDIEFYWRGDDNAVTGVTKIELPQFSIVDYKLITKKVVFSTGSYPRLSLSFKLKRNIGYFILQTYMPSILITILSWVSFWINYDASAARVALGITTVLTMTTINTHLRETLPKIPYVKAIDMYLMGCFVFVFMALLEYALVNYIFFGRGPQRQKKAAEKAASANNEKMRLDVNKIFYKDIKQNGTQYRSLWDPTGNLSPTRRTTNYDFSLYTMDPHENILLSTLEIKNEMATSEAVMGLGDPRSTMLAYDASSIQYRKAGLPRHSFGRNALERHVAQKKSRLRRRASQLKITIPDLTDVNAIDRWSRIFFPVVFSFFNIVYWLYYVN
T1 sequence (P18507 40-475): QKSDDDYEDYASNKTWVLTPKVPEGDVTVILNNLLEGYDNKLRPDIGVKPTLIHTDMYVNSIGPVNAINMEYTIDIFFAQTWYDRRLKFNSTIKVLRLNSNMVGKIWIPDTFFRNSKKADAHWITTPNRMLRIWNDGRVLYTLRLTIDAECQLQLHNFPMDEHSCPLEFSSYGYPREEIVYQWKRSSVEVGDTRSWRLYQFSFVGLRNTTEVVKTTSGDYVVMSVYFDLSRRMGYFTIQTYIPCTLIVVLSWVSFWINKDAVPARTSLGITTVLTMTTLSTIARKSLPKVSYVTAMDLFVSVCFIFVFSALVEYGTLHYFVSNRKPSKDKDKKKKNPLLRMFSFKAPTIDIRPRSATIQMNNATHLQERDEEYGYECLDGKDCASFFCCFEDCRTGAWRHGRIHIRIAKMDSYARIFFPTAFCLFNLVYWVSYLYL
Description: CHO-K1 cells stably expressing human GABAA receptor α1,β2 and γ2 subunits were used. The cells were harvested using trypsin and maintained in serum-free medium at room temperature. The cells were washed and re-suspended in extracellular solution before testing.
Experiments on human GABAA (α1β2γ2) channels were conducted using an automated patch clamp assay (IonFlux™ HT). Compounds were tested at 3 concentrations (0.1, 1, and 10 μM) in 3 to 4 cells. The external solution for recording GABAA currents was composed of sodium chloride 137 mM, potassium chloride 4 mM, calcium chloride 1.8 mM, magnesium chloride 1 mM, HEPES 10 mM, and glucose 10 mM. Both external and internal solutions were titrated with NaOH or KOH to obtain a pH of 7.35 or 7.3, respectively. The internal pipette solution contained potassium fluoride 70 mM, potassium chloride 60 mM, sodium chloride 70 mM, HEPES 5 mM, EGTA 5 mM, and Magnesium ATP 4 mM. The final concentration of vehicle used to dilute compounds was 0.33% DMSO in each well. Bicuculline (0.032 to 100 μM) was used as positive control inhibitor. GABA (15 μM) was used as agonist. […]
The compound addition sequence was the following: one addition of the EC80 concentration of GABA was added to establish baseline response. […] Peak inward currents in response to the GABA additions in the presence of a single concentration of compound were measured. […]

dopamine D1 receptor [2] = target: T2, dopamine D1 receptor (Homo sapiens, UniProt P21728); assay: cAMP HTRF activation assay (absence of dopamine); assay type: cell-based; settings: L-M(TK-), 10 μM compound, LMtk cells expressing D1, read-out: % of activation (compared to dopamine maximal response)
T2 construct: host or cells: LMtk (Ltk-) mouse fibroblast cells
T2 sequence (P21728 whole entry): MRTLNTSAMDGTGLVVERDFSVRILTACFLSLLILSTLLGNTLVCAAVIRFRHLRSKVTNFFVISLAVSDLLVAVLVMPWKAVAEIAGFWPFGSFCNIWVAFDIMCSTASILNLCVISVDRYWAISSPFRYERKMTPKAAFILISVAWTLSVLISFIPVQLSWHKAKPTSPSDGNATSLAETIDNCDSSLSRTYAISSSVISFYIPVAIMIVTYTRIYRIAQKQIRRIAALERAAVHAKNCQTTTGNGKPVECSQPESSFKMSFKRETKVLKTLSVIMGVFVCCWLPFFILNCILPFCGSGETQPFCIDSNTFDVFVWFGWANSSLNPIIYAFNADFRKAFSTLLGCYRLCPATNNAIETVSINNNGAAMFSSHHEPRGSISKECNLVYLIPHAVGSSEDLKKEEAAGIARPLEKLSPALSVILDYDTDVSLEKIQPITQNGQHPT
Source text: (§1) Assays have been designed to measure the effects of compounds in accordance with the present invention in the absence of dopamine (“activation assay”) and in the presence of dopamine (“potentiation assay”).
The activation assay measures the stimulation of the production of cyclic adenosinemonophosphate (cAMP) in the Homogeneous Time Resolved Fluorescent (HTRF) assay, with the maximum increase in cAMP by increasing concentrations of the endogenous agonist, dopamine, defined as 100% activation.
(§2) Cells were cultured at 37° C. in a humidified atmosphere of 5% CO2. […]
The measurement of changes in intracellular cyclic adenosinemonophopshpate (cAMP) was determined using the HTRF cAMP dynamic assay kit from CisBio (Codolet, France). […] The tracer binding is determined by an anti-cAMP antibody labeled with cryptate. The effects of the compound alone (agonism) was determined by performing the assay in the absence of dopamine, whilst the effect of the compound as a positive allosteric modulator (PAM) was determined in the presence of an EC20 concentration of dopamine. […] This is then incubated for a further 60 min at room temperature and changes in HTRF fluorescent emission ratio determined according to manufacturer's instructions using an Envision plate reader (Perkin Elmer, Zaventem, Belgium) with laser excitation. […]

CYP3A4 = CYP3A4 induction assay in cryopreserved human hepatocytes; assay type: in vitro ADME
Description: The objective of the human hepatocyte assay is to characterize the induction potential of Compound of formula (I) by measuring the CYP3A4 activities after 3-days of hepatocytes treatment with culture medium alone or culture medium containing increasing concentration of NCE.
To this aim, cryopreserved human hepatocytes from a single donor are seeded on a 48 well collagen coated plate so that the final seeding density is 0.2×10^6 cells/well (final volume per well 0.25 mL). The cells are then incubated in seeding medium at 37° C., 95% humidity, 5% CO2 to allow the cells to attach. […]
For catalytic activity determination, solution of the CYP3A4 probe substrate, midazolam (final concentration 2.5 μM) is prepared in pre warmed assay medium. […] An aliquot of supernatant is diluted with deionised water and levels of 1-hydroxymidazolam is quantified using generic LC MS/MS methods.
The hepatocytes are solubilised in 0.1M sodium hydroxide at room temperature and protein content in each well determined using Pierce™ BCA Protein Assay Kit (Thermo Scientific) using bovine serum albumin as a standard.
The fold-induction (increase in CYP activity) is obtained by taking the ratio of the measured enzymatic activity obtained in hepatocytes treated with Compound of formula (I), over the one obtained in control hepatocytes treated with vehicle. […]

dopamine D1 receptor [3] = target: T2, dopamine D1 receptor; assay: cAMP HTRF potentiation assay (presence of EC20 dopamine); assay type: cell-based
Source text: as §1
The potentiation assay measures the ability of compounds to increase the levels of cAMP produced by a low-threshold concentration of dopamine. The concentration of dopamine used ([EC20]) is designed to produce 20% stimulation compared to the maximal response (100%) seen with increasing the concentration of dopamine. To measure this potentiation increasing concentrations of the compound with the [EC20] of dopamine are incubated and the potentiation is measured as increases in cAMP production and concentration of compound which produces 50% of the potentiation of the cAMP levels is measured.
as §2
The measurement of changes in intracellular cyclic adenosinemonophopshpate (cAMP) was determined using the HTRF cAMP dynamic assay kit from CisBio (Codolet, France). […] The tracer binding is determined by an anti-cAMP antibody labeled with cryptate. The effects of the compound alone (agonism) was determined by performing the assay in the absence of dopamine, whilst the effect of the compound as a positive allosteric modulator (PAM) was determined in the presence of an EC20 concentration of dopamine. […]

Compound: C[C@H]1c2cccc(C(C)(C)O)c2C[C@H](CO)N1C(=O)Cc1c(Cl)ccc2c1c(Cl)nn2C [compound of formula (I), 2-(3,5-dichloro-1-methyl-indazol-4-yl)-1-[(1S,3R)-3-(hydroxymethyl)-5-(1-hydroxy-1-methyl-ethyl)-1-methyl-3,4-dihydro-1H-isoquinolin-2-yl]ethanone]
- inhibition at 10 µM [1]: < 0.1%
- Emax at 10 µM (dopamine D1 receptor [2]): < 20%
- fold-induction value, times lower than positive control (Rifampicin) (CYP3A4; compound 1 μM vs Rifampicin 10 μM, 72 h, CYP3A4 activity (midazolam)): at least 7 times lower
- induction potential, times lower than positive control (Rifampicin) (CYP3A4; highest fold-induction: compound at highest soluble concentration 3 μM vs Rifampicin 10 μM): about 4 times lower
- Erel (relative efficacy) (dopamine D1 receptor [3]; maximal potentiation relative to dopamine maximum response (100%)): about 68%
- pEC50 (dopamine D1 receptor [3]; potentiation of cAMP in presence of EC20 dopamine (1.1 nM), LMtk cells expressing D1): ~8.10 and > 6.50
